Laboratory results from publication PMC7026418, “The kinase polypharmacology landscape of clinical PARP inhibitors” (Scientific Reports, 2020).
Like-named read-outs stand apart in the source and are kept apart here.

How the values were obtained:
Experiment in all cases: biochemical
Parameters in all cases: DiscoveRx KINOMEscan active site-directed competition binding; percent of control kinase bound to immobilised ligand
ACVR2B = ACVR2B (Homo sapiens, UniProt Q13705)
BMX = target: T1, BMX (Homo sapiens, UniProt P51813)
T1 sequence (P51813 1-675): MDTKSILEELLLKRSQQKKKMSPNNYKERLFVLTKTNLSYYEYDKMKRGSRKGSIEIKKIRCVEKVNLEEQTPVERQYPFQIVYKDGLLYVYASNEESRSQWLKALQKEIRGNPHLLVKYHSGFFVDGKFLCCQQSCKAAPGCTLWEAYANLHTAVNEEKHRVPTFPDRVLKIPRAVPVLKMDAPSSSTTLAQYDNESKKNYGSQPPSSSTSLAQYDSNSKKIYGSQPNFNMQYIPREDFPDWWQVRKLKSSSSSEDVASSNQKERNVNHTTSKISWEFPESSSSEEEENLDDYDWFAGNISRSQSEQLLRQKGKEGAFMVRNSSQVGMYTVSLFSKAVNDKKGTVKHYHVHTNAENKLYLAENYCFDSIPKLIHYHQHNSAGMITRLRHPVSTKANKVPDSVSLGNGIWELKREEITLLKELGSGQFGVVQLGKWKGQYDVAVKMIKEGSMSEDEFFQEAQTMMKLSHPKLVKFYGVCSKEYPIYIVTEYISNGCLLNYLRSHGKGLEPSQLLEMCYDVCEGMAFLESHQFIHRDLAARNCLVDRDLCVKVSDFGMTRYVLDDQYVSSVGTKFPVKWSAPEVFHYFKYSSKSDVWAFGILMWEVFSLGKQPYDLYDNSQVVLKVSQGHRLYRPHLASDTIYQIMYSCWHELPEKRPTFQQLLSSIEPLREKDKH

CAMK1 = CAMK1 (Homo sapiens, UniProt Q14012)
CAMK1, sequence (Q14012 whole entry): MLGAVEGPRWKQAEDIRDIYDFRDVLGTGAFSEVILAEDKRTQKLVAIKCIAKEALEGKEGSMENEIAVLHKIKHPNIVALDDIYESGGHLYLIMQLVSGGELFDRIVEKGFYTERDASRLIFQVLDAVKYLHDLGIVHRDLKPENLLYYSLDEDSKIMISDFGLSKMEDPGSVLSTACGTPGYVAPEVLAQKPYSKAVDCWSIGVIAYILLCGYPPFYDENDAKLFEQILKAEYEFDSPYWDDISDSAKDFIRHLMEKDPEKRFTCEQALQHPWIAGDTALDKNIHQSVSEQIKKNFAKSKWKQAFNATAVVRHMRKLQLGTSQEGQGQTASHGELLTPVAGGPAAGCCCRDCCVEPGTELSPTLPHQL

DAPK2 = DAPK2 (Homo sapiens, UniProt Q9UIK4)
DAPK2, sequence (Q9UIK4 whole entry): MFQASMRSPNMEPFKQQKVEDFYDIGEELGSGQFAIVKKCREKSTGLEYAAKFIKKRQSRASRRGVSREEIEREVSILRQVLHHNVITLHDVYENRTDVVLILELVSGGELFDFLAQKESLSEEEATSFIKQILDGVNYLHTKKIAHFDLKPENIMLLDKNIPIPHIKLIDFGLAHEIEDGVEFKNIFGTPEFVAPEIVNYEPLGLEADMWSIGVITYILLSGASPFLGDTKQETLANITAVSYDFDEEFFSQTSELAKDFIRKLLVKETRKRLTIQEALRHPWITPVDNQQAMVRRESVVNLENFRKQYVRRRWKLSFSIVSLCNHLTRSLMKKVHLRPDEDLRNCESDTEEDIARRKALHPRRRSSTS

EGFR(E746-A750del) = EGFR(E746-A750del) (Homo sapiens, UniProt P00533, DEL746-750)
EGFR(E746-A750del), sequence (P00533 with tags, fused parts or gaps DEL746-750): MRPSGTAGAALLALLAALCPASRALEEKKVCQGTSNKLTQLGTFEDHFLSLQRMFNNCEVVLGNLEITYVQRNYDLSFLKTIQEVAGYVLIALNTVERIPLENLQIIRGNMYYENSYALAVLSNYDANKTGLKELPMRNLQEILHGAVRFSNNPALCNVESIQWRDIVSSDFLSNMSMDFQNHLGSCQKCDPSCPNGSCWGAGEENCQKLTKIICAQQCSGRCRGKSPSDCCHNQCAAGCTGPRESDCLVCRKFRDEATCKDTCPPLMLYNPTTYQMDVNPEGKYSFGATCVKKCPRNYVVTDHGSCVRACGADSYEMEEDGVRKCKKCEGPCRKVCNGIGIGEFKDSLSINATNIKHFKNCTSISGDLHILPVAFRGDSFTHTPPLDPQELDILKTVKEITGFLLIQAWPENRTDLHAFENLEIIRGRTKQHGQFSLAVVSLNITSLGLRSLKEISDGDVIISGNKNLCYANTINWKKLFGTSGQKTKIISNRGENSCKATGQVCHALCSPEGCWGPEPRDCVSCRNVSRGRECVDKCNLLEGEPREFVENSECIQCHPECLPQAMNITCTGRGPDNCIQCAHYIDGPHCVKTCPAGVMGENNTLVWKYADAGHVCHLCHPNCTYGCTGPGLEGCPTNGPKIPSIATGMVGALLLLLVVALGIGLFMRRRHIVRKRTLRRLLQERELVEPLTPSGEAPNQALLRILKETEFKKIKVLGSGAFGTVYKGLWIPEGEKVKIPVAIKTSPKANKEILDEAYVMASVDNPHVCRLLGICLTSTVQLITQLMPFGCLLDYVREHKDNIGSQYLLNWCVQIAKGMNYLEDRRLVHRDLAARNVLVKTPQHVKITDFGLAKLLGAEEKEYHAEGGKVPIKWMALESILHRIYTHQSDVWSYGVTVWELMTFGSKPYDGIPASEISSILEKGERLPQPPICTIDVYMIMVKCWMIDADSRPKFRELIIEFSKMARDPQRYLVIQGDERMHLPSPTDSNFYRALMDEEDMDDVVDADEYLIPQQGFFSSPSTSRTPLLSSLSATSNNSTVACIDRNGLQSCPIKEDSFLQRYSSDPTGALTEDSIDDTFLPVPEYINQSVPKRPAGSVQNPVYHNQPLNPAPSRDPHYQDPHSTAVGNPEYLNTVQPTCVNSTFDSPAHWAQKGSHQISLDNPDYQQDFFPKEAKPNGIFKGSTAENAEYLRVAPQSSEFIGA

MKNK1 = MKNK1 (Homo sapiens, UniProt Q9BUB5)
MKNK1, sequence (Q9BUB5 whole entry): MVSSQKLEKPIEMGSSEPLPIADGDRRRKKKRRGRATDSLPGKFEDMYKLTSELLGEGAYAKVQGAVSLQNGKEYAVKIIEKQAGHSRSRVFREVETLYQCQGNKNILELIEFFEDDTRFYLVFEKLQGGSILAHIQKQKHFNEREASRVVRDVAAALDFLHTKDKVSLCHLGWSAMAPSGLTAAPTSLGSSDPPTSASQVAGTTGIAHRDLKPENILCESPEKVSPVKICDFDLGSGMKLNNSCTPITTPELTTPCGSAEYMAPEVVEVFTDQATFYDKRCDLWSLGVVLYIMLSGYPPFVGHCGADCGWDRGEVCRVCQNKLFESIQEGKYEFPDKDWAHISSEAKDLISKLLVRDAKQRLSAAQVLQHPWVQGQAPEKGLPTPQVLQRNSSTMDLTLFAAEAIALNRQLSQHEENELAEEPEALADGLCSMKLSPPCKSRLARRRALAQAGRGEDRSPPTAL

MST4 = target: T2, MST4 (Homo sapiens, UniProt Q9P289)
T2 construct: gene STK26
T2 sequence (Q9P289 whole entry): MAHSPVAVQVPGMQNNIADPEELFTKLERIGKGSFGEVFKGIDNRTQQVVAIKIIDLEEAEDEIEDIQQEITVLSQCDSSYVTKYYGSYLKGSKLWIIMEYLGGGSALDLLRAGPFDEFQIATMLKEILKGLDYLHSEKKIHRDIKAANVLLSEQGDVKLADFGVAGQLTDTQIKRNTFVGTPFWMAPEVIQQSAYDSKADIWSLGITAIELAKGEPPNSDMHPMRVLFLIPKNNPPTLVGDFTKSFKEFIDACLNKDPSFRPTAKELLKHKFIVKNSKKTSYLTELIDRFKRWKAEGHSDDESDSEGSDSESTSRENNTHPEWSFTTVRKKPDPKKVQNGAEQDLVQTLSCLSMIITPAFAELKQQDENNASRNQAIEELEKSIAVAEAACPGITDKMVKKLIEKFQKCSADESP

NIM1 = target: T3, NIM1 (Homo sapiens, UniProt Q8IY84)
T3 construct: gene NIM1K
T3 sequence (Q8IY84 whole entry): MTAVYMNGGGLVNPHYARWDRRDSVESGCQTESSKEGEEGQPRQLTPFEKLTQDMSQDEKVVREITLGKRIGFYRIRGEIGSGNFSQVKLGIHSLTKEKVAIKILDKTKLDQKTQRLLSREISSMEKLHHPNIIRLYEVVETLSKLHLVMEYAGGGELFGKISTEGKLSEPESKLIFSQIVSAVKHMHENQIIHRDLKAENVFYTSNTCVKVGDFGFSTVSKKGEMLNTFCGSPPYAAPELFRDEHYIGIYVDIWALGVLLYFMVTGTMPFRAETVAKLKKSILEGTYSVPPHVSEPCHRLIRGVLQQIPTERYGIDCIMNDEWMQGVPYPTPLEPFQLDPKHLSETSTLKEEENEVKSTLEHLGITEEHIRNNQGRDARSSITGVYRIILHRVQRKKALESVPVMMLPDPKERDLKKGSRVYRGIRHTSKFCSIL

PIK3CD = target: T4, PIK3CD (Homo sapiens, UniProt O00329)
T4 sequence (O00329 1-1044): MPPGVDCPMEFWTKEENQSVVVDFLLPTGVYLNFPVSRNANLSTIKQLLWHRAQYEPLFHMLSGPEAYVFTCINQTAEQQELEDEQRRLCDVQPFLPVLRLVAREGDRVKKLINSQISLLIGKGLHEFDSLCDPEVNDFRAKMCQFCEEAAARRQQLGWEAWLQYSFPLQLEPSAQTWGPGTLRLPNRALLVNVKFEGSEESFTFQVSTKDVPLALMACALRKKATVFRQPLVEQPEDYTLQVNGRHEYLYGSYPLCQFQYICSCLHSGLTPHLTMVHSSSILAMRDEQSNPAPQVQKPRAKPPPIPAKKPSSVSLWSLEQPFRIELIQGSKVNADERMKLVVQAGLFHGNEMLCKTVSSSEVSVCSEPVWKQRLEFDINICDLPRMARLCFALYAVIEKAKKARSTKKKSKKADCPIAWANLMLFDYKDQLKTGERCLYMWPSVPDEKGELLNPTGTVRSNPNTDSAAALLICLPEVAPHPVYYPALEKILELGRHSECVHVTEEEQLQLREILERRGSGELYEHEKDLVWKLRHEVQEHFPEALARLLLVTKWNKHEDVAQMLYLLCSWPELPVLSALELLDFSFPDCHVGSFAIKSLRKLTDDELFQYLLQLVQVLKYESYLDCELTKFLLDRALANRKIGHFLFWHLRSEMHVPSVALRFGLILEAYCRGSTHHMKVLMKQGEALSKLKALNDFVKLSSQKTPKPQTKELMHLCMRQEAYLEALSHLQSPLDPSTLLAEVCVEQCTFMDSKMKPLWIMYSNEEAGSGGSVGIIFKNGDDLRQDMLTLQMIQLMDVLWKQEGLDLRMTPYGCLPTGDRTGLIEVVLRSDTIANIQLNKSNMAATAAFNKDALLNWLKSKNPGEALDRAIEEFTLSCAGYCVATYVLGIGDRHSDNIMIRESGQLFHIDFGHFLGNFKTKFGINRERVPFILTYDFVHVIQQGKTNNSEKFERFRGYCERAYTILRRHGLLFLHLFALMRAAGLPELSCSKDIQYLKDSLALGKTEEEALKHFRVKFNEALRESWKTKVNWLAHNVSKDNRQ

[1] = read-out: Talazoparib (BMN 673) / %Ctrl @ 10000nM
[2] = read-out: Olaparib / %Ctrl @ 10000nM
[3] = read-out: Rucaparib / %Ctrl @ 10000nM, binding competition, % of control
[4] = read-out: Niraparib (MK-4827) / %Ctrl @ 10000nM

ACVR2B, sequence (Q13705 whole entry): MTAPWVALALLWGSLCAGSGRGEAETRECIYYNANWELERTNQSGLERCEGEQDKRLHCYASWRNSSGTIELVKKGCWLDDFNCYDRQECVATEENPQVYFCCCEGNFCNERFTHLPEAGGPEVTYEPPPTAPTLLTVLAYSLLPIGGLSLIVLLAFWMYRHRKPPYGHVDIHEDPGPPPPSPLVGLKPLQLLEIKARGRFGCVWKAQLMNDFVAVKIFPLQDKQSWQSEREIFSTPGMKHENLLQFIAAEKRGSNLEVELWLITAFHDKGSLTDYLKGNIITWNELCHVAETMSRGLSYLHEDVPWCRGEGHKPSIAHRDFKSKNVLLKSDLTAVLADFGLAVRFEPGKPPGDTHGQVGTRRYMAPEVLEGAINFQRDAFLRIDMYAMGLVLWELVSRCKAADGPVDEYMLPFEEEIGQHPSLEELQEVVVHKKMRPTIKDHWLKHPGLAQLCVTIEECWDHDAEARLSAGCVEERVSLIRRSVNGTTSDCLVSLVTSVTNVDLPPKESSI

How did the percent of control binding at 10 µM (ACVR2B; [1]) turn out when Cn1ncnc1[C@H]1c2n[nH]c(=O)c3cc(F)cc(c23)N[C@@H]1c1ccc(F)cc1 [Talazoparib] was run?
The percent of control binding at 10 µM was 100%.

What about the percent of control binding at 10 µM (BMX; [1]) of the same molecule?
Its percent of control binding at 10 µM is 100%.

And the percent of control binding at 10 µM (CAMK1; [1])?
The percent of control binding at 10 µM was 95%.

And the percent of control binding at 10 µM (DAPK2; [1])?
Its percent of control binding at 10 µM is 95%.

What about the percent of control binding at 10 µM (EGFR(E746-A750del); [1]) of the same molecule?
The percent of control binding at 10 µM was 100%.

And the percent of control binding at 10 µM (MKNK1; [1])?
Its percent of control binding at 10 µM is 100%.

And the percent of control binding at 10 µM (MST4; [1])?
The percent of control binding at 10 µM was 89%.

What about the percent of control binding at 10 µM (NIM1; [1]) of the same molecule?
The percent of control binding at 10 µM was 79%.

And the percent of control binding at 10 µM (PIK3CD; [1])?
Its percent of control binding at 10 µM is 82%.

What does the source list for O=C(c1cc(Cc2n[nH]c(=O)c3ccccc23)ccc1F)N1CCN(C(=O)C2CC2)CC1 [Olaparib]?
percent of control binding at 10 µM (ACVR2B; [2]): 100%; percent of control binding at 10 µM (BMX; [2]): 98%; percent of control binding at 10 µM (CAMK1; [2]): 100%; percent of control binding at 10 µM (DAPK2; [2]): 100%; percent of control binding at 10 µM (EGFR(E746-A750del); [2]): 97%; percent of control binding at 10 µM (MKNK1; [2]): 82%; percent of control binding at 10 µM (MST4; [2]): 91%; percent of control binding at 10 µM (NIM1; [2]): 83%; percent of control binding at 10 µM (PIK3CD; [2]): 75%

With CNCc1ccc(-c2[nH]c3cc(F)cc4c3c2CCNC4=O)cc1 [Rucaparib] as the molecule, how does the percent of control binding at 10 µM (ACVR2B; [3]) read?
The percent of control binding at 10 µM was 100%.

And the percent of control binding at 10 µM (BMX; [3])?
The percent of control binding at 10 µM was 91%.

What about the percent of control binding at 10 µM (CAMK1; [3]) of the same molecule?
The percent of control binding at 10 µM was 90%.

What about the percent of control binding at 10 µM (DAPK2; [3]) of the same molecule?
The percent of control binding at 10 µM was 37%.

And the percent of control binding at 10 µM (EGFR(E746-A750del); [3])?
The percent of control binding at 10 µM was 81%.

What about the percent of control binding at 10 µM (MKNK1; [3]) of the same molecule?
Its percent of control binding at 10 µM is 97%.

And the percent of control binding at 10 µM (MST4; [3])?
Its percent of control binding at 10 µM is 67%.

And the percent of control binding at 10 µM (NIM1; [3])?
The percent of control binding at 10 µM was 71%.

And the percent of control binding at 10 µM (PIK3CD; [3])?
The percent of control binding at 10 µM was 64%.

Which results are given for NC(=O)c1cccc2cn(-c3ccc([C@@H]4CCCNC4)cc3)nc12 [Niraparib]?
percent of control binding at 10 µM (ACVR2B; [4]): 100%; percent of control binding at 10 µM (BMX; [4]): 87%; percent of control binding at 10 µM (CAMK1; [4]): 80%; percent of control binding at 10 µM (DAPK2; [4]): 81%; percent of control binding at 10 µM (EGFR(E746-A750del); [4]): 96%; percent of control binding at 10 µM (MKNK1; [4]): 100%; percent of control binding at 10 µM (MST4; [4]): 64%; percent of control binding at 10 µM (NIM1; [4]): 100%; percent of control binding at 10 µM (PIK3CD; [4]): 73%
